# Data: US7795456B2, “Insecticidal N-substituted sulfoximines” (Dow AgroSciences LLC, priority 2004, dated 2010)
# Like-named read-outs stand apart in the source and are kept apart here.
# How the values were obtained:
# [1] = tested on: fruit fly (Drosophila melanogaster)
# [2] = tested on: yellow fever mosquito (Aedes aegypti) larvae; experiment: whole plant or invertebrate; type: in vivo; conditions: 72 h, read-out: YFM 26: % control at 26 ppm against yellow fever mosquito in submerge tests
# [3] = tested on: beet armyworm (Spodoptera exigua)
# [4] = tested on: beet armyworm (Spodoptera exigua); experiment: Insecticidal test for beet armyworm in injection assays; conditions: 1 h, read-out: BAW SYM: % showing intoxicated symptoms at 10 μg/larva against beet armyworm in injection tests
# [5] = tested on: cotton aphid (Aphis gossypii); experiment: Insecticidal test for cotton aphid, foliar spray on squash; conditions: for pest or weed control at 50 ppm / pest or weed control at 200 ppm: Aphis gossypii, foliar, 72 h; for pest or weed control at 50 ppm: read-out: CA 50: % control at 50 ppm against cotton aphid in foliar spray tests; for pest or weed control at 200 ppm: read-out: CA 200: % control at 200 ppm against cotton aphid in foliar spray tests; for % Control at ppm, against cotton aphid: 0.012: 0.012 ppm; for % Control at ppm, against cotton aphid: 0.049: 0.049 ppm; for % Control at ppm, against cotton aphid: 0.195: 0.195 ppm
# [6] = tested on: corn earworm (Helicoverpa zea)
# [7] = tested on: sweet potato whitefly (Bemisia tabaci); experiment: Insecticidal test for sweet potato whitefly, foliar spray on cotton; conditions: for % Control at ppm, against sweet potato whitefly: 0.4-0.78: 0.4-0.78 ppm; for % Control at ppm, against sweet potato whitefly: 0.4-0.78 / % Control at ppm, against sweet potato whitefly: 2-3.13 / % Control at ppm, against sweet potato whitefly: 10-12.5 / % Control at ppm, against sweet potato whitefly: 50: rundown assay; for % Control at ppm, against sweet potato whitefly: 2-3.13: 2-3.13 ppm; for % Control at ppm, against sweet potato whitefly: 10-12.5: 10-12.5 ppm; for % Control at ppm, against sweet potato whitefly: 50: 50 ppm; for pest or weed control at 200 ppm: Bemisia tabaci, in Gossypium hirsutum, foliar, read-out: SPW 200: % control at 200 ppm against sweet potato whitefly in foliar spray tests
# [8] = tested on: green peach aphid (Myzus persicae); experiment: Insecticidal test for green peach aphid, foliar spray on cabbage seedlings; conditions: for % Control at ppm, against green peach aphid: 0.012: 0.012 ppm; for % Control at ppm, against green peach aphid: 0.012 / % Control at ppm, against green peach aphid: 0.049 / % Control at ppm, against green peach aphid: 0.195 / % Control at ppm, against green peach aphid: 0.78 / % Control at ppm, against green peach aphid: 3.12: rundown assay, 3 days; for % Control at ppm, against green peach aphid: 0.049: 0.049 ppm; for % Control at ppm, against green peach aphid: 0.195: 0.195 ppm; for % Control at ppm, against green peach aphid: 0.78: 0.78 ppm; for % Control at ppm, against green peach aphid: 3.12: 3.12 ppm
# [9] = 50 μg/cm2, second-instar larvae, 5 days
Structure (SMILES),"FF 25: % mortality at 25 μg/cm2 against fruit fly in dietary tests ([1]; 25 μg/cm2, 48 h)",pest or weed control at 26 ppm [2],"BAW 50: % mortality at 50 μg/cm2 against beet armyworm in dietary tests [3, 9]",pest or weed control at 0.01 mg [4],pest or weed control at 50 ppm [5],pest or weed control at 200 ppm [5],"CEW 50: % mortality at 50 μg/cm2 against corn earworm in dietary tests [6, 9]","FF SYM: % showing intoxicated symptoms at 25 μg/cm2 against fruit fly in dietary tests ([1]; 25 μg/cm2, 4 h)",further results
"N#CN=S1(=O)CCCC1Cc1cnc(Cl)s1 (centres unmarked) [Compound 11, 2-[(2-chloro-1,3-thiazol-5-yl)methyl]-1-oxidotetrahydro-1H-1λ^4-thien-1-ylidenecyanamide]",D (60-69),90 to 100%,G (Inactive),60 to 69%,90 to 100%,90 to 100%,G (Inactive),,
"CC(C)(c1ccc(Cl)nc1)S(C)(=O)=NC#N (centres unmarked) [Compound 9, [1-(6-chloropyridin-3-yl)-1-methylethyl](methyl)oxido-λ^4-sulfanylidenecyanamide]",C (70-79),90 to 100%,G (Inactive),< 50%,90 to 100%,90 to 100%,G (Inactive),A (90-100),
C[C@H](c1ccc(Cl)nc1)[S@](C)(=O)=NC#N [Compound 28],A (90-100),90 to 100%,G (Inactive),60 to 69%,90 to 100%,90 to 100%,G (Inactive),A (90-100),"% Control at ppm, against sweet potato whitefly: 0.4-0.78 [7]: A (90-100); % Control at ppm, against sweet potato whitefly: 2-3.13 [7]: A (90-100); % Control at ppm, against sweet potato whitefly: 10-12.5 [7]: A (90-100); % Control at ppm, against sweet potato whitefly: 50 [7]: A (90-100); pest or weed control at 200 ppm [7]: 90 to 100%; % Control at ppm, against cotton aphid: 0.012 ([5]; rundown assay): A (90-100); % Control at ppm, against cotton aphid: 0.049 ([5]; rundown assay): A (90-100); % Control at ppm, against cotton aphid: 0.195 ([5]; rundown assay): A (90-100); % Control at ppm, against cotton aphid: 0.78 ([5]; 0.78 ppm, rundown assay): A (90-100); % Control at ppm, against cotton aphid: 3.12 ([5]; 3.12 ppm, rundown assay): A (90-100); % Control at ppm, against green peach aphid: 0.012 [8]: F (Less than 50); % Control at ppm, against green peach aphid: 0.049 [8]: F (Less than 50); % Control at ppm, against green peach aphid: 0.195 [8]: B (80-89); % Control at ppm, against green peach aphid: 0.78 [8]: A (90-100); % Control at ppm, against green peach aphid: 3.12 [8]: A (90-100)"
N#CN=S1(=O)CCC[C@H]1Cc1ccc(Cl)nc1 (some centres unmarked) [Compound 21],G (Inactive),80 to 89%,G (Inactive),,90 to 100%,90 to 100%,G (Inactive),,
CC(c1ccc(Cl)nc1)[S@](C)(=O)=NC#N (some centres unmarked) [Compound 29],A (90-100),90 to 100%,G (Inactive),90 to 100%,90 to 100%,90 to 100%,G (Inactive),A (90-100),"% Control at ppm, against sweet potato whitefly: 0.4-0.78 [7]: A (90-100); % Control at ppm, against sweet potato whitefly: 2-3.13 [7]: A (90-100); % Control at ppm, against sweet potato whitefly: 10-12.5 [7]: A (90-100); % Control at ppm, against sweet potato whitefly: 50 [7]: A (90-100); pest or weed control at 200 ppm [7]: 90 to 100%; % Control at ppm, against cotton aphid: 0.012 ([5]; rundown assay): A (90-100); % Control at ppm, against cotton aphid: 0.049 ([5]; rundown assay): A (90-100); % Control at ppm, against cotton aphid: 0.195 ([5]; rundown assay): A (90-100); % Control at ppm, against cotton aphid: 0.78 ([5]; 0.78 ppm, rundown assay): A (90-100); % Control at ppm, against cotton aphid: 3.12 ([5]; 3.12 ppm, rundown assay): A (90-100); % Control at ppm, against green peach aphid: 0.012 [8]: F (Less than 50); % Control at ppm, against green peach aphid: 0.049 [8]: D (60-69); % Control at ppm, against green peach aphid: 0.195 [8]: A (90-100); % Control at ppm, against green peach aphid: 0.78 [8]: A (90-100); % Control at ppm, against green peach aphid: 3.12 [8]: A (90-100)"
CS(=O)(=NC#N)C(Cl)c1ccc(Cl)nc1 (centres unmarked) [Compound 23],A (90-100),90 to 100%,G (Inactive),< 50%,90 to 100%,90 to 100%,G (Inactive),A (90-100),
N#CN=S1(=O)CCCC1Cc1ccc(Cl)nc1 (centres unmarked) [Compound 14],F (Less than 50),90 to 100%,G (Inactive),,90 to 100%,90 to 100%,G (Inactive),,
CCS(=O)(CC(C)c1ccc(Cl)nc1)=N[N+](=O)[O-] (centres unmarked) [Compound 38],G (Inactive),< 50%,G (Inactive),,80 to 89%,90 to 100%,G (Inactive),,
"N#CN=S1(=O)CCCCC1Cc1ccc(Cl)nc1 (centres unmarked) [Compound 5, 2-[(6-chloropyridin-3-yl)methyl]-1-oxidohexahydro-1λ^4-thiopyran-1-ylidenecyanamide]",G (Inactive),50 to 59%,G (Inactive),50 to 59%,90 to 100%,90 to 100%,G (Inactive),,
CS(=O)(=NC#N)C(F)c1ccc(Cl)nc1 (centres unmarked) [Compound 25],C (70-79),90 to 100%,G (Inactive),,90 to 100%,90 to 100%,G (Inactive),B (80-89),
CCC(c1ccc(Cl)nc1)S(C)(=O)=NC#N (centres unmarked) [Compound 26],A (90-100),90 to 100%,G (Inactive),< 50%,90 to 100%,90 to 100%,G (Inactive),A (90-100),
CS(=O)(=NC#N)C(Cc1ccccc1)c1ccc(Cl)nc1 (centres unmarked) [Compound 27],G (Inactive),80 to 89%,G (Inactive),,90 to 100%,90 to 100%,G (Inactive),,
"N#CN=S1(=O)CCCC1 [Compound 12, 1-Oxidotetrahydro-1H-1λ^4-thien-1-ylidenecyanamide]",,,,90 to 100%,90 to 100%,90 to 100%,,,"FF 25: % mortality at 25 μg/cm2 against fruit fly in dietary tests ([1]; in vivo): D (key: A: 90-100; B: 80-89; C: 70-79; D: 60-69; E: 50-59; F: Less than 50; G: Inactive; H: Not tested); FF SYM: % showing intoxicated symptoms at 25 μg/cm2 against fruit fly in dietary tests ([1]; in vivo): A (key: A: 90-100; B: 80-89; C: 70-79; D: 60-69; E: 50-59; F: Less than 50; G: Inactive; H: Not tested); pest or weed control at 200 ppm [7]: 80 to 89%; BAW 50: % mortality at 50 μg/cm2 against beet armyworm in dietary tests ([3]; in vivo): F (key: A: 90-100; B: 80-89; C: 70-79; D: 60-69; E: 50-59; F: Less than 50; G: Inactive; H: Not tested); % Control at ppm, against cotton aphid: 0.78 ([5]; in vivo): E (key: A: 90-100; B: 80-89; C: 70-79; D: 60-69; E: 50-59; F: Less than 50; G: Inactive; H: Not tested); % Control at ppm, against cotton aphid: 3.12 ([5]; in vivo): E (key: A: 90-100; B: 80-89; C: 70-79; D: 60-69; E: 50-59; F: Less than 50; G: Inactive; H: Not tested); % Control at ppm, against cotton aphid: 12.5 ([5]; in vivo): A (key: A: 90-100; B: 80-89; C: 70-79; D: 60-69; E: 50-59; F: Less than 50; G: Inactive; H: Not tested); % Control at ppm, against cotton aphid: 50 ([5]; in vivo): A (key: A: 90-100; B: 80-89; C: 70-79; D: 60-69; E: 50-59; F: Less than 50; G: Inactive; H: Not tested); % Control at ppm, against green peach aphid: 12.5 ([8]; in vivo): F (key: A: 90-100; B: 80-89; C: 70-79; D: 60-69; E: 50-59; F: Less than 50; G: Inactive; H: Not tested); % Control at ppm, against green peach aphid: 50 ([8]; in vivo): F (key: A: 90-100; B: 80-89; C: 70-79; D: 60-69; E: 50-59; F: Less than 50; G: Inactive; H: Not tested); CEW 50: % mortality at 50 μg/cm2 against corn earworm in dietary tests ([6]; in vivo): D (key: A: 90-100; B: 80-89; C: 70-79; D: 60-69; E: 50-59; F: Less than 50; G: Inactive; H: Not tested)"
CS(=O)(=NC#N)C(Br)c1ccc(Cl)nc1 (centres unmarked) [Compound 24],A (90-100),90 to 100%,G (Inactive),< 50%,90 to 100%,90 to 100%,G (Inactive),F (Less than 50),
